One assay has as its system animal model. To be noted: cited from earlier work.
A further assay has as its system cytomegalovirus. To be noted: cited from earlier work.
Assay [1] relates to peritoneal macrophages from wild-type mice. The assay is described as follows: Cytokine production by peritoneal macrophages (ELISA), wild-type. The class given is cell-based, mouse. To be noted: 5×10^4 cells, presence or absence of 30 U/ml IFN-γ. On the procedure:
(§1) 2 ml of 4% thioglycollic acid medium (DIFCO) were injected into the intraperitoneals of the wild-type mice, TLR7 knockout mice (TLR7KO), MyD88 knockout mice (MyD88KO) and TLR9 knockout mice (TLR9KO), respectively, three days later, peritoneal exudate cells were isolated from intraperitoneal of each mouse, these cells were cultured in PRMI 1640 medium (GIBCO) added with 10% fatal bovine serum (GIBCO) at 37° C. for two hours, nonadherent cells were […] by washing with Hank's buffered salt solution (HBBS; GIBCO) at iced temperature, and the adherent cells were used as peritoneal macrophages in following experiment. Total RNA (10 μg) obtained from macrophages derived from the wild-type mice (+/Y) and TLR7 knockout mouse (TLR7KO) was electrophoresed, transferred onto a nylon membrane, and hybridized with a part of TLR7 DNA, and this membrane was rehybridized with β-actin probe. It was examined by the Northern blotting. From the results shown in FIG. 3, the expression of TLR7mRNA could not be found in TLR7 knockout mice.
(§2) In addition, the measurement of cytokine generated from peritoneal macrophages was executed as follows; […] peritoneal macrophages of 2×10^5 well or 5×10^4 well were cultured in 96-well plate respectively, and after stimulated with the above-mentioned reagents for 24 h, concentration of TNF-α, IL-12p40, IL-6 and/or IFN-α were measured by ELISA according to the manual.
(§3) Before examining the reactivity of TLR7 knockout mice to imiquimod and R-848 which are imidazoquinoline group compound, firstly imiquimod or R-848 were administered to BALB/c mice (wild-type) orally at the predetermined concentration, respectively, the concentration of IFN-α, TNF-α and IL-12 in serum were measured after two hours. […] The data is shown as a mean value+/−S.D. (N=3). Similarly, the ability of these compounds to activate immune cells via TLR was examined using imiquimod or R-848 respectively. The peritoneal macrophages (5×10^4 cells) from wild-type mice and MyD88 knockout mice prepared in example 2, were stimulated by imiquimod or R-848, in the presence or absence of 30 U/ml of IFN-γ, and the concentration of TNF-α and IL-12 produced by peritoneal macrophages were measured by ELISA. […] The data is shown as a mean value+/−S.D. (N=3).

The test system of the next assay is various types of cells. To be noted: cited from earlier work.
For assay [2], the system named is type 2 herpes simplex virus. To be noted: cited from earlier work.
The test system of assay [3] is peritoneal macrophages from MyD88 knockout mice. Description: Cytokine production by peritoneal macrophages (ELISA), MyD88 knockout. Conditions: 5×10^4 cells, presence or absence of 30 U/ml IFN-γ. It is filed as cell-based, mouse. As to the method: as §1, §2, §3
The subject of the next assay is NF-κB and MAP kinase. Conditions: cited from earlier work.
The test system of another assay is human papilloma virus. To be noted: actual treatment; cited from earlier work.
In the next assay the test system is BALB/c mice (wild-type). The assay is described as follows: Serum cytokines after oral administration of imidazoquinolines. The class given is in vivo, mouse. To be noted: after two hours, N=3. On the procedure: as §3

Each structure is given as a SMILES string.

`CC(C)Cn1cnc2c(N)nc3ccccc3c21` [imiquimod]: in the assay with animal model, the antitumor activity result is on record as “antitumor activity” and the antivirus activity entry was “shows antivirus activity”. In addition, the replication of cytomegalovirus entry in the assay with cytomegalovirus is given as “inhibit the replication”. In addition, in [1], the “IL-12 produced by peritoneal macrophages” value was “in large amount” and the “TNF-α produced by peritoneal macrophages” value is listed as “in large amount”. Besides, the “induction of cytokines such as IFN-α, IL-6 and IL-12” value in the assay with various types of cells was “inducing cytokines such as IFN-α, IL-6 and IL-12”. Also, the “replication of type 2 herpes simplex virus” value in assay [2] is “inhibit the replication”. Also, in assay [3], the “IL-12 produced by peritoneal macrophages” value was “hardly produced any cytokines” and the “TNF-α produced by peritoneal macrophages” value was “hardly produced any cytokines”. Moreover, the “stimulation of NF-κB and MAP kinase” value with NF-κB and MAP kinase is “stimulates”. For the same compound, the “treating pudendal wart (condyloma acuminatum) caused by human papilloma virus” value in the assay on human papilloma virus is “effective”. Further, in the assay on BALB/c mice (wild-type), the “concentration of IFN-α in serum” value was “increased depending on applied dose”, the “concentration of IL-12 in serum” value is listed as “increased depending on applied dose” and the “concentration of TNF-α in serum” value is listed as “increased depending on applied dose”.

The values above are taken from patent US7608750B2, “Nonhuman model animal unresponsive to immunopotentiating synthetic compound” (Japan Science and Technology Agency, priority 2001, dated 2009).
